The subject of one assay is primary neurons. The assay can be described thus: Cellular glutathione (GSH) in glutamate-treated primary neurons (HPLC-coulometric). The conditions noted are these: glutamate 10 mM; α-tocotrienol 100 nM or BL15 2.5 μM. It counts as cell-based, rat. As for the experimental part: First, we tested for the involvement of 12-LOX in the execution of glutamate-induced death in our model. We started by using the 12-LOX specific inhibitor baicalein or BL15. Referring to FIG. 3, HT4 neurons (A) were either treated or not with a-tocotrienol (250 nM) or […] (2.5 μM, 12-lipoxygenase inhibitor) for 5 min and then challenged with glutamate (10 mM). Cell viability was determined using propidium iodide (PI) exclusion flow cytometry assay. PI−=live; PI+=dead. Rat primary immature cortical neurons (B-D) were either treated or not with α-tocotrienol (100 nM) or BL15 (2.5 μM) for 5 min and challenged either with glutamate (10 mM; B); L-homocysteic acid (1 mM; C) or buthionine sulfoximine (0.15 mM; BSO; D) for 24 h. Arachidonic acid, 50 μM for 24h. BL15, Baicalein 5,6,7-trihydroxy-flavone. […] B-E: †, lower compared to the corresponding control non-treated group; *, higher compared to the corresponding toxin-treated group. P<0.05.
Glutathione assay. Glutathione (GSH) was detected using a HPLC-coulometric electrode array detector (Coularray Detector—model 5600 with 12 channels; ESA Inc., Chelmsford, Mass.). […] Glutathione was detected at channels set at following potentials: I) 600 mV, II) 700 mV; and II) 800 mV. Signals from channel set at 800 mV were used for quantification (Sen et al., 2002).

Assay [1] deals with 12-lipoxygenase activity in HT4 neurons. The assay can be described thus: 12(S)-HETE, product of 12-lipoxygenase activity, in glutamate-treated HT4 neurons (HPLC). Conditions: HT4, glutamate 12 h. The format is cell-based, mouse. The method, then: Neurons isolated from 12-LOX deficient mice are resistant to glutamate-induced death (FIG. 4). This striking finding reinforced our interest to test α-tocotrienol as an inhibitor of glutamate-inducible 12-LOX activity in neuronal cells. Referring to FIG. 5, Products of 12-lipoxygenase activity in glutamate-treated neurons were evaluated using a HPLC-based analytical approach. […] ND, not detectable. It was observed that the by-product of 12-LOX activity, 12(S)-HETE, was not detected in HT4 cells under basal culture conditions (FIG. 5). […] However, such increase was prevented in α-tocotrienol treated cells (FIG. 5). This line of observation led to the question whether over-expression of 12-LOX in HT4 cells would sensitize them to glutamate-induced cytotoxicity and whether α-tocotrienol could counter such toxicity.
12-HETE detection. 12-Hydroxy-eicosatetraenoic acid (HETE) from HT4 cells was detected using a HPLC-UV based method (Eberhard et al., 2000). Immunofluorescence microscopy. For immunofluorescence microscopy, primary cultures of rat cortical neurons were plated on 35 mm plates pre-coated with poly-L-lysine. After 24 h, cell were treated with α-tocotrienol or BL15 for 5 minutes and then challenged with glutamate or exposed to glutamate. […]

The test system of assay [2] is rat primary cortical neurons. The assay can be described thus: Imaging of glutamate-induced degeneration of rat primary cortical neurons (immunofluorescence, live cell imaging). Conditions: glutamate 10 mM, α-tocotrienol 250 nM or BL15 2.5 μM 5 min before. The format is cell-based.
Description: Phase contrast images were collected once every 15 mins for 18 h from 8 h after glutamate treatment.
For immunofluorescence microscopy, primary cultures of rat cortical neurons were plated on 35 mm plates pre-coated with poly-L-lysine. After 24 h, cell were treated with α-tocotrienol or BL15 for 5 minutes and then challenged with glutamate or exposed to glutamate. After 24 h of glutamate exposure, cells were washed thrice in PBS, fixed for 10 minutes at room temperature in 4% paraformaldehyde, and permeabilized with PBS-T (PBS containing 0.2% Triton X-100) for 20 minutes at room temperature. Samples were then rinsed 3× with PBS-T and blocking (2% BSA in PBS-T) was done for 1 h at room temperature. After blocking, samples were incubated overnight at 4° C. with the primary antibody (anti-neurofilament 200 (1:100, Sigma St. Louis, Mo.) or neuronal class III α-tubulin (1:500, Covance Berkeley, Calif.)}. After washing with PBS (3×, 5 min each), the samples were incubated with Alexa Fluor 488 conjugated goat anti-mouse or anti-rabbit (Molecular Probes Eugene, Oreg.) secondary antibody for 45 minutes at room temperature. This was followed by three PBS washes, and mounting in aqueous medium. Fluorescent images were collected using a Zeiss Axiovert 200M microscope. Images were acquired using Axiovision 3.1.
For live cell imaging, primary cultures of rat cortical neurons were plated on 35 mm plates pre-coated with poly-L-lysine. […] Images were collected once every 15 minutes using a specialized phase contrast Zeiss optics suited for imaging cells growing in routine culture plates.
In another assay the test system is HT4 neurons. Conditions: nM concentrations; Sen et al., 2000; cited from earlier work.

The text below walks through data of patent US20050228041A1, “Protective and therapeutic uses for tocotrienols” (priority 2003, published 2005).

Entries after “also recorded” stand apart in the source; their conditions may differ.

As to `CC(C)=CCC/C(C)=C/CC/C(C)=C/CC[C@]1(C)CCc2c(C)c(O)c(C)c(C)c2O1` [α-tocotrienol], in the assay on primary neurons, the “cellular glutathione (GSH) in protected glutamate-treated primary neurons” value is given as “loss of cellular glutathione”. Moreover, in assay [1], the “glutamate-induced increase of cellular 12(S)-HETE content” value is “prevented”. In addition, the “glutamate-induced degeneration of the neural network and neuronal growth” value is “resisted degeneration and continued to grow; also recorded: prevents glutamate-induced neuro-degeneration; also recorded: protection” in assay [2]; “insensitive to glutamate” in assay [2] (listed as α-Tocotrienol). Moreover, the “protection of HT4 neurons from glutamate-induced death (previously reported)” value in the assay on HT4 neurons was “protects”.
